Earlier results, collected in publication PMC11249953, “c-KIT inhibitors reduce pathology and improve behavior in the Tg(SwDI) model of Alzheimer’s disease” (Life Science Alliance, 2024).
Read-outs that look alike come from different tables or passages of the source.

Legend:
APPswe/PSEN1dE9 mice = tested on: APPswe/PSEN1dE9 mice; design: method as in Li et al, 2020; settings: chronic oral treatment, ref Li et al, 2020; cited from earlier work
[1] = ref Li et al, 2020, cited from earlier work
c-KIT = tested on: c-KIT; design: method as in Dubreuil et al, 2009; settings: ref Dubreuil et al, 2009; cited from earlier work

For `Cc1ccc(NC(=O)c2ccc(CN3CCN(C)CC3)cc2)cc1Nc1nc(-c2cccnc2)cs1` [Masitinib], the amyloid-β and neuroinflammation (APPswe/PSEN1dE9 mice) is given as “not reducing amyloid-β or attenuating neuroinflammation”, the spatial learning performance (APPswe/PSEN1dE9 mice) is given as “reverse spatial learning performance” and the brain penetrance [1] is given as “poor brain penetrance”. For the same compound, the brain penetrance ([1]; listed as masitinib) was “poor brain penetrant” and the IC50 (c-KIT) was […].
